The chromatographic logP is lipophilicity estimated from chromatographic retention. A higher chromatographic logP goes with a more lipophilic compound.

These results are taken from US7884242B2, “N-heterocyclylphthaldiamides as insecticides” (Bayer CropScience AG, priority 2004, dated 2011).

Data set [1] is described as follows: log P determination by HPLC on reverse phase column, pH 2.3. The data set is classed as physicochemical. Conditions: reverse phase HPLC column (C 18), reverse phase column (C 18), pH 2.3, 43° C. Summed up:
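Reverse-phase C18 HPLC at 43 °C per EEC directive 79/831 Annex V.A8, eluting with 0.1% aqueous phosphoric acid (pH 2.3) and a linear 10–95% acetonitrile gradient. log P read from retention time by linear interpolation between two sequential unbranched alkan-2-ones (C3–C16) of known log P.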

Data set [2] concerns green peach aphid (Myzus persicae). Description: Myzus test (spray treatment). The data set is classed as in vivo. Summed up: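 Chinese cabbage slices infested with all aphid stages were sprayed with compound formulated in solvent and emulsifier and diluted in emulsifier-containing water. After a set time, percent mortality was scored: 100% means all aphids killed, 0% none killed.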

Data set [3] relates to larvae of the mustard leaf beetle (Phaedon cochleariae). Put plainly: Phaedon test (spray treatment). The data set is classed as in vivo. The procedure: [table] For the preparation of a suitable active compound formulation 1 part by weight of the active compound is mixed with the above amounts of solvent and emulsifier and the concentrate is diluted to the desired concentration with water containing emulsifier. China cabbage slices (Brassica pekinensis) are sprayed with an active compound preparation of the desired composition and after drying infected with larvae of the mustard leaf beetle (Phaedon cochleariae). After the desired time the activity in % is determined. Here 100% means that all beetle larvae were killed; 0% means that no beetle larvae were killed.

Data set [4] deals with caterpillars of the fall army worm (Spodoptera frugiperda). Put plainly: Spodoptera frugiperda test (spray treatment). Type of data set: in vivo. Put shortly: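 Maize leaf sections sprayed with emulsified aqueous compound preparation at the desired concentration, dried, then infested with fall armyworm caterpillars. Activity scored after the set time as % kill (100% all caterpillars dead, 0% none).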

The subject of data set [5] is caterpillars of the diamond back moth (Plutella xylostella). Description: Plutella test. The data set is classed as in vivo. How it is done:
[table] For the preparation of a suitable active compound formulation 1 part by weight of the active compound is mixed with the above amounts of solvent and emulsifier and the concentrate is diluted to the desired concentration with water containing emulsifier. Cabbage leaves (Brassica oleracea) are treated by dipping into the active compound preparation of the desired concentration and infected with caterpillars of the diamond back moth (Plutella xylostella) while the leaves were still wet. After the desired time the death rate is determined as %. Here 100% means that all caterpillars were killed; 0% means no caterpillars were killed.

Data set [6] has as its system caterpillars of the beet army worm (Spodoptera exigua). Description: Spodoptera exigua test (resistant strain). The data set is classed as in vivo. How it is done: [table] For the preparation of a suitable active compound formulation 1 part by weight of the active compound is mixed with the above amounts of solvent and emulsifier and the concentrate is diluted to the desired concentration with water containing emulsifier. Cabbage leaves (Brassica oleracea) are treated by dipping in the active compound preparation at the desired concentration and infected with caterpillars of the beet army worm (Spodoptera exigua) while the leaves are still moist. After the desired time the death rate in % is determined. Here 100% means that all caterpillars were killed; 0% means that no caterpillars were killed.

Data set [7] deals with caterpillars of the cotton boll worm (Heliothis armigera). Description: Heliothis armigera test. Type of data set: in vivo. How it is done:
[table] For the preparation of a suitable active compound formulation 1 part by weight of the active compound is mixed with the above amounts of solvent and emulsifier and the concentrate is diluted to the desired concentration with water containing emulsifier. Soy bean leaves (Glycine max.) are treated by dipping into the active compound preparation at the desired concentration and infected with the caterpillars of the cotton boll worm (Heliothis armigera), while the leaves are still wet. After the desired time the death rate in % is determined. Here 100% means that all caterpillars were killed; 0% means that no caterpillars were killed.

As to `Cc1nc(Cn2cc(C(F)(F)C(F)(F)F)c(C(F)(F)C(F)(F)F)n2)ncc1NC(=O)c1cccc(Cl)c1C(=O)N[C@@H](C)CS(C)(=O)=O` [Example 66], in data set [1], the chromatographic logP is 3.29. Moreover, the pest or weed control at 100 g/ha in data set [2] (Myzus persicae, in Brassica oleracea, 120 h, 100 g/ha, spray treatment, China cabbage slices, after 5 d, read-out: Death rate in % after 5d) stood at 100%. The “activity in Myzus test (spray treatment)” value in data set [2] (statement in words) was “good activity”. The pest or weed control at 4 g/ha in data set [3] (Phaedon cochleariae, 168 h, 4 g/ha, spray treatment, China cabbage slices, after 7 d, read-out: Death rate in % after 7d) turned out to be 100%; in data set [4] (Spodoptera frugiperda, 168 h, 4 g/ha, spray treatment, maize leaf sections, after 7 d, read-out: Death rate in % after 7d), 100%. The “activity in Phaedon test (spray treatment)” value in data set [3] (statement in words) is “good activity”. Also, in data set [4] (statement in words), the “activity in Spodoptera frugiperda test (spray treatment)” value is listed as “good activity”. Besides, the “Death rate in % after 7d” value was determined as 100% in data set [5] (0.8 ppm, cabbage leaves dipped, after 7 d); 100% in data set [6] (4 ppm, resistant strain, cabbage leaves dipped, after 7 d); 80% in data set [7] (0.8 ppm, soy bean leaves dipped, after 7 d). The “activity in Plutella test” value in data set [5] (statement in words) is “good activity”. Further, the “activity in Spodoptera exigua test (resistant strain)” value in data set [6] (statement in words) is listed as “good activity”. Moreover, the “activity in Heliothis armigera test” value in data set [7] (statement in words) is given as “good activity”.
